Values of other authors in publication PMC9441699 (Frontiers in Cellular and Infection Microbiology, 2022).
Where two headings read alike, the source gives them in different places.

Tests used:
MERS-CoV = conditions: 2019
HcoV-OC43 = conditions: 2019
[1] = molecular target: angiotensin converting enzyme from rabbit lung; design: method as in Yu et al., 2012; conditions: 0.01-10 µM; ref Yu et al., 2012
Vero cells = test system: Vero cells; design: method as in Ho et al., 2007; conditions: 0, 10, 50, 100, 200 and 400 µ/mL; ref Ho et al., 2007
[2] = test system: HcoV-NL63 inLLC-MK2 cells; design: method as in Weng et al., 2019; conditions: 0, 10, 50,100 µM/36h; ref Weng et al., 2019; read-out: Inhibition of viral cytopathicity IC50
SARS-CoV [3] = conditions: read-out: EC50 SARS-CoV viral replication
[4] = test system: interaction of S protein with ACE2; design: method as in Ho et al., 2007; dose or concentration left out as unconfirmed; conditions: ref Ho et al., 2007
SARS-CoV [5] = conditions: ref Li et al., 2005
RdRp Dengue virus = test system: RdRp Dengue virus; design: method as in Coulerie et al., 2013; conditions: in vitro; ref Coulerie et al., 2013
[6] = tanshinones from Salvia miltiorrhiza, read-out: IC50 against PLpro
[7] = 1, 2.5, 20 µM/16h, ref Jo et al., 2020, read-out: IC50

Compound: CC[C@H]1CN2CCc3cc(OC)c(OC)cc3[C@@H]2C[C@@H]1C[C@H]1NCCc2cc(OC)c(OC)cc21 [Emetine, reference compound]
- EC50 (HcoV-NL63; ref Weber and Opatz, 2019, read-out: EC50 HcoV-NL63): 1.43 µM
- EC50 (MERS-CoV; ref Weber and Opatz): 0.34 µM
- EC50 (HcoV-OC43; ref Weber and Opatz): 0.3 µM

Compound: O=C(/C=C/CCc1ccc(O)c(O)c1)CCc1ccc(O)c(O)c1 [Ligand L01, Hirsutenone]
- IC50 (SARS-CoV-PLpro; 0-200 µM/60min, ref Park et al., 2012a, read-out: IC50): 4.1 µM

Compound: C=C(C)C(Cc1c(OC)ccc(C(=O)/C=C/c2ccc(O)cc2)c1O)OO (stereo not shown) [Ligand L02, Xanthoangelol E]
- IC50 (SARS-CoV-3CLpro; 0, 12.5, 25, 50 µM, ref Park et al., 2016, read-out: Inhibition of SARS-CoV-3CLpro activity IC50): 11.4 µM
- IC50 (SARS-CoV-PLpro; 0, 12.5, 25, 50 µM, ref Park et al., 2016, read-out: Inhibition of SARS-CoV-PLpro activity IC50): 1.2 µM

Compound: O=c1c(O)c(-c2cc(O)c(O)c(O)c2)oc2cc(O)cc(O)c12 [Ligand L03, Myricetin]
- IC50 [1]: 2.71 µM
- inhibitory effect against SARS-CoV helicase (SARS-CoV helicase): moderate inhibitory impacts

Compound: CC(C)=CCc1cc2c(cc1O)oc(=O)c1c3ccc(O)cc3oc21 [Ligand L04, Psoralidin]
- IC50 (SARS-CoV-PLpro; 0-100 µM, ref Kim et al., 2014, read-out: IC50): 4.2 µM

Compound: Oc1cc(O)cc(Oc2c(O)cc(O)c3c2Oc2c(O)cc(Oc4c(O)cc(Oc5c(O)cc(O)c6c5Oc5c(O)cc(O)cc5O6)cc4O)cc2O3)c1 [Ligand L05, Dieckol]
- IC50 (SARS-CoV-3CLpro; 0-200 µM, ref Park et al., 2013, read-out: IC50): 2.7 µM

Compound: COc1cc([C@H]2Oc3cc4c(c(O)c3C(=O)[C@@H]2O)CCC(C)(CCCC(C)(C)O)O4)ccc1O (stereo partly shown) [Ligand L06, Tomentin E]
- IC50 (SARS-CoV-PLpro; 0, 6.25, 12.5, 25 µM, ref Cho et al., 2013, read-out: IC50): 5 µM

Compound: Cc1cc(O)c2c(c1)C(=O)c1cc(O)cc(O)c1C2=O [Ligand L07, Emodin]
- IC50 (Vero cells): 200 µM

Compound: C[C@H]1COC2=C1C(=O)C(=O)c1c2ccc2c1CCCC2(C)C [Ligand L08, Cryptotanshinone]
- IC50 (SARS-CoV-PLpro; 0-200 µM/30min, ref Park et al., 2012b, read-out: IC50): 0.8 µM

Compound: Cc1cccc2c3c(ccc12)C1=C(C(=O)C3=O)[C@@H](C)CO1 [Ligand L09, Dihydrotanshinone l,]
- IC50 (SARS-CoV-3CLpro; 0-200 µM/60min, ref Park et al., 2012b, read-out: IC50): 14.4 µM
- IC50 (SARS-CoV-PLpro; [6]): 4.9 µM

Compound: O=C(O)/C=C/c1ccc(O)c(O)c1 [Ligand L10, Caffeic acid]
- IC50 [2]: 3.54 µM

Compound: O=C(/C=C/c1ccc(O)c(O)c1)O[C@@H]1C[C@](O)(C(=O)O)C[C@@H](O)[C@H]1O [Ligand L11, Chlorogenic acid]
- IC50 [2]: 43.5 µM

Compound: O=C(O)c1cc(O)c(O)c(O)c1 [Ligand L12, Gallic acid]
- IC50 [2]: 71.5 µM

Compound: O=c1cc(-c2ccc(O)cc2)oc2cc(O)c(O)c(O)c12 [Ligand L13, Scutellarein]
- inhibitory effect against SARS-CoV helicase (SARS-CoV helicase): moderate inhibitory impacts
- IC50 (SARS-CoV helicase; 0.01-10 µM, In vitro, ref Yu et al., 2012): 0.86 µM

Compound: O=c1cc(-c2ccc(O)c(-c3c(O)cc(O)c4c(=O)cc(-c5ccc(O)cc5)oc34)c2)oc2cc(O)cc(O)c12 [Ligand L14, Amentoflavone]
- IC50 (SARS-CoV-3CLpro; 0-300 µM, ref Ryu et al., 2010a, read-out: IC50): 8.3 µM

Compound: COc1cc(/C=C/C(=O)NC(O)C(=O)c2ccc(O)cc2)ccc1O (stereo not shown) [Ligand L15, Terrestrimine]
- IC50 (SARS-CoV-PLpro; 1,10,100,1000 µM, ref Song et al., 2014, read-out: IC50): 15.8 µM

Compound: O=c1c(O)c(-c2ccc(O)cc2)oc2c(O)c(O)cc(O)c12 [Ligand L16, Herbacetin]
- IC50 (SARS-CoV-3CLpro; [7]): 33.2 µM

Compound: COc1ccc(-c2cc(=O)c3c(O)c(OC)c(O[C@@H]4O[C@H](CO[C@@H]5O[C@@H](C)[C@H](O)[C@@H](O)[C@H]5O)[C@@H](O)[C@H](O)[C@H]4O)cc3o2)cc1 [Ligand L17, Pectolinarin]
- IC50 (SARS-CoV-3CLpro; [7]): 37.8 µM

Compound: C[C@@H]1O[C@@H](O[C@H]2[C@H](Oc3cc(O)c4c(=O)cc(-c5ccc(O)cc5)oc4c3)O[C@H](CO)[C@@H](O)[C@@H]2O)[C@H](O)[C@H](O)[C@H]1O [Ligand L18, Rhoifolin]
- IC50 (SARS-CoV-3CLpro; [7]): 27.4 µM

Compound: COC(=O)[C@H]1[C@H]2C[C@@H]3c4[nH]c5cc(OC)ccc5c4CCN3C[C@H]2C[C@@H](OC(=O)c2cc(OC)c(OC)c(OC)c2)[C@@H]1OC [Reserpine]
- EC50 (SARS-CoV [3]): 3.4 µM

Compound: CC[C@H](CC[C@@H](C)[C@H]1CC[C@H]2[C@@H]3CC=C4C[C@@H](O)CC[C@]4(C)[C@H]3CC[C@]12C)C(C)C [Sitosternol]
- EC50 (HcoV-NL63; ref Lin et al., 2005, read-out: EC50 against human coronavirus (HCoV-NL63)): 1210 µM

Compound: O=c1cc(-c2ccccc2)oc2cc(O)cc(O)c12 [chrysin]
- effect on the interaction of S protein with ACE2 [4]: weak inhibitory effect

Compound: O[C@H]1[C@H]2c3cc4c(cc3CN3CCC(=C[C@@H]1O)[C@H]23)OCO4 [lycorine]
- EC50 (SARS-CoV [5]; MTS test, read-out: EC50 against SARS-CoV): 0.0157 ± 0.0012 µM
- IC50 (SARS-CoV [5]; Prasansuklab et al., 2020, read-out: IC50 anti-SARS-CoV): 0.0157 µM
- EC50 (HcoV-NL63; in vitro, ref Shen et al., 2019, read-out: EC50 HcoV-NL63): 0.47 µM
- EC50 (MERS-CoV; in vitro, ref Shen et al.): 1.63 µM
- EC50 (HcoV-OC43; in vitro, ref Shen et al.): 0.15 µM

Compound: COc1cc(O)c2c(=O)cc(-c3ccc(O)cc3)oc2c1-c1cc(-c2cc(=O)c3c(O)cc(O)cc3o2)ccc1O [sotetsuflavone]
- IC50 (RdRp Dengue virus): 0.16 µM

Compound: Cc1coc2c1C(=O)C(=O)c1c-2ccc2c1CCCC2(C)C [tanshinone IIA]
- IC50 (SARS-CoV-PLpro; [6]): 1.6 µM

Compound: COc1ccc(C(=O)/C=C/c2ccc(O)cc2)c(O)c1C/C=C(\C)CCC=C(C)C [xanthoangelol F]
- IC50 (SARS-CoV-PLpro; noncompetitive inhibition, ref Park et al., 2016, read-out: IC50 PLpro): 5.6 µM

Compound: curcumin
- IC50 (SARS-CoV-PLpro; diarylheptanoids, ref Park et al., 2012a, read-out: IC50 PLpro): 5.7 µM
